Test results as given in patent US12010991B1, “Microemulsion with disinfectant properties” (priority 2021, dated 2024).
Read-outs that look alike come from different tables or passages of the source.

Measured: H2O (clarity)

Cc1ccc(C(C)C)cc1O [Example 2, Carvacerol]
Clear: Solvent C8-10 Acid Ethanol, Surfactant/Solubilizer Polysorbate 20 | Solvent NONE, Surfactant/Solubilizer Polysorbate 20 Polysorbate 80 | Solvent NONE, Surfactant/Solubilizer Quat 242 Ti-Nat
Not Clear: Solvent Propanediol, Surfactant/Solubilizer AB-1 (first entry) | Solvent Propanediol, Surfactant/Solubilizer AB-1 (second entry) | Solvent Propanediol, Surfactant/Solubilizer Polyglycerol | Solvent Propanediol, Surfactant/Solubilizer Polyglycerol D9 | Solvent Propanediol, Surfactant/Solubilizer Polyglycerol D9 SugarNate | Solvent Propanediol, Surfactant/Solubilizer Quat 242 Ti-Nat | Solvent Propanediol, Surfactant/Solubilizer Quat 242 Ti-Nat AB-1 | Solvent Propanediol, Surfactant/Solubilizer SugaNate 160
Cloudy: Solvent Ethanol, Surfactant/Solubilizer Polysorbate 20
